Results as given in the NIST ThermoML archive (doi:10.1016/j.jct.2005.06.001).
Several values for one entry are separate records, joined by “and”; a condition that tells them apart may be missing. Equal values may be shown once.

Settings: Crystal; for vapor or sublimation pressure: Calculated from knudsen effusion weight loss; for Normal melting temperature: visual observation

CCc1ccc2cc3ccccc3cc2c1 [2-ethylanthracene]
Settings	Normal melting temperature [°C]	vapor or sublimation pressure
–	154.5	–
343.27 K	–	0.000164 kPa and 0.000165 kPa
345.13 K	–	0.000203 kPa and 0.0002 kPa
347.1 K	–	0.000239 kPa and 0.000235 kPa and 0.000241 kPa
349.26 K	–	0.000306 kPa and 0.000309 kPa and 0.000301 kPa
351.15 K	–	0.000378 kPa and 0.000372 kPa and 0.00037 kPa
353.11 K	–	0.000465 kPa and 0.000456 kPa and 0.000458 kPa
355.27 K	–	0.00056 kPa and 0.000562 kPa and 0.000569 kPa
357.07 K	–	0.000684 kPa and 0.000668 kPa
359.05 K	–	0.000828 kPa and 0.000833 kPa and 0.000824 kPa

Cc1c2ccccc2cc2ccccc12 [9-methylanthracene]
Settings	Normal melting temperature [°C]	vapor or sublimation pressure
–	81.7	–
329.16 K	–	0.000185 kPa and 0.000194 kPa and 0.000184 kPa
331.19 K	–	0.000237 kPa and 0.000244 kPa and 0.000236 kPa
333.17 K	–	0.000271 kPa and 0.000297 kPa and 0.000286 kPa
335.16 K	–	0.00036 kPa and 0.00035 kPa and 0.000345 kPa
337.15 K	–	0.000427 kPa and 0.00045 kPa and 0.000435 kPa
339.16 K	–	0.000562 kPa and 0.000577 kPa and 0.000559 kPa
341.17 K	–	0.000666 kPa and 0.000681 kPa and 0.00066 kPa
343.21 K	–	0.000829 kPa and 0.000851 kPa and 0.000821 kPa
345.19 K	–	0.001004 kPa and 0.00104 kPa and 0.001011 kPa

Cc1c2ccccc2c(C)c2ccccc12 [9,10-dimethylanthracene]
Settings	Normal melting temperature [°C]	vapor or sublimation pressure
–	186.4	–
363.18 K	–	0.000229 kPa and 0.000242 kPa and 0.000213 kPa
365.2 K	–	0.000287 kPa and 0.000302 kPa and 0.000271 kPa
367.18 K	–	0.000344 kPa and 0.00036 kPa and 0.000332 kPa
369.18 K	–	0.000444 kPa and 0.00041 kPa and 0.000425 kPa
371.2 K	–	0.000498 kPa and 0.00053 kPa and 0.000494 kPa
373.19 K	–	0.000613 kPa and 0.000654 kPa and 0.00061 kPa
375.18 K	–	0.000736 kPa and 0.000761 kPa and 0.00071 kPa
377.17 K	–	0.00088 kPa and 0.000913 kPa and 0.000841 kPa
378.98 K	–	0.001057 kPa and 0.001092 kPa and 0.001008 kPa
